Reference: patent publication US4013662A, “Alkyl and benzyl 6,7-dialkoxy-2-methyl-4-oxo-1,2,3,4-tetrahydroquinoline-1-carboxylates” (Pfizer Inc., priority 1975, dated 1977)

How the values were obtained:
[1] = Rat Flinch Jump Test (suppression of the jump component); type: in vivo; parameters: unit not given here
Text: D. Suppression of the "jump" component of the Flinch-Jump Test [Evans, Psychopharmacologia, 2, 318 (1961)].
The following results were obtained when the performance of the d-, l and dl- forms of a compound of the invention were compared in the Rat Flinch Jump Thresholds The control Jump Threshold using saline were 0.78 at 0.5 hr. and 0.92 at 2 hr.
The following results were obtained when 6,7-dimethoxy-2-methyl-4-oxo-1,2,3,4-tetrahydroquinoline, ethyl 6,7-dimethoxy-2-methyl-4-oxo-1,2,3,4-tetrahydroquinoline-1-carboxylate and benzyl 6,7-dimethoxy-2-methyl-4-oxo-1,2,3,4-tetrahydroquinoline-1-carboxylate were compared in the Rat Flinch Jump Test. The dosage of test compound was 56 mpk. Each of the compounds was in its racemic form.

[2] = Symptomatology (rotorod, inclined plane); type: in vivo, mice; conditions: intraperitoneally; for Symptomatology, Inclined Plane: inability to remain on an inclined plane; for Symptomatology, Rotorod: inability to ride a rotating rod
Method: c. Symtomatology--Four groups of 3 mice were treated intraperitoneally with 31.6, 100, 316, or 1000 mg/kg of the test compound. At 1/2, 2, or 5 hours after treatment, symtomatological observations were made; observations were all-or-none, and classified into autonomic, muscular, reflex or behavioral categories. […] Symptoms interpreted as indicating tranquilizer activity included decreased spontaneous motor activity, inability to ride a rotating rod (rotorod), and inability to remain on an inclined plane.

[3] = Conditioned Avoidance Behavior (Sidman); type: in vivo
Text: (§1) A. Conditioned Avoidance Behavior [Maffi, J. Pharmacol., 11, 129 (1959); Sidman, Science, 118, 157 (1953)].

[4] = Conditioned Avoidance Behavior (Maffi); type: in vivo; conditions: 0.5 hr.
Text: as §1

[5] = Sedation Test (jiggle cage); type: in vivo, male Sprague-Dawley rats; conditions: oral, jiggle cage for 1 hr. from 1.5 hr.
Text: B. Sedation Test -- The subjects were male Sprague-Dawley rats weighing approximately 200 g and fed and watered ad lib before the experiment. Eight rats were assigned to each treatment group, and each rat was used only once.
1.5 hr. after oral treatment, each rat was placed in a standard jiggle cage for 1 hr. In this device, the subject was confined in a 6 × 6 × 3.5 in. Plexiglas enclosure. The enclosure was attached to one end of a flexible steel arm. This configuration, all of which was housed in a soundproof, ventilated chamber, allowed the enclosure to jiggle slightly with any movement. A force displacement transducer mounted under the jiggle cage monitored any vertical movement of the subject. The output of the transducer was coupled to a strain-gauge amplifier and to an analog recorder. To provide digital data of movement/non-movement times a trigger circuit was constructed in which the output of the strain-gauge amplifier was attentuated and rectified to activate a relay whenever the subject moved. When the relay remained deenergized for 3 sec., a timer was activated. Movement by the subject energized the relay and stopped the timer until 3 sec. of immobility recurred. This 3 sec. criterion eliminated brief periods of inactivity observed even in active rats. […]

Escape Titration Test = type: in vivo; conditions: p.o.
Text: E. Escape Titration Test [Weiss et al, Science, 128, 1575 (1958) ].

Tail Flick Test = type: in vivo; conditions: 100 mpk
Text: H. Tail Flick Test [Witkin et al, Proc. Soc. Exp. Biol., 101, 377 (1959)].

[6] = PBQ Writhing (Suppression of Writhing Test); type: in vivo; conditions: 100 mpk
Text: F. Suppression of Writhing Test [Siegmund et al, Proc. Sec. Exp. Biol., 95, 729 (1957].

LD50 = conditions: in vivo
Hot Plate Test = type: in vivo; conditions: 100 mpk
Text: G. Hot Plate Test [Eddy et al, J. Pharm. Exp. Ther., 107, 385 (1953)].

[7] = Mouse Tail Pinch Technique (modified Haffner procedure); type: in vivo, mice; conditions: lack of an audible squeak
Text: The activity of compounds of this invention as analgesic agents has also been shown by testing their effectiveness in a Mouse Tail Pinch Technique. This technique was a modification of the Haffner procedure [Deutsche Med. Wochenschrifte, 55, 731-732 (1929)] in which the mice were strongly pinched on the base of the tail. An audible squeak was elicited in normal non-drugged mice. Lack of an audible squeak was taken as indication of analgesic activity in drugged mice.

[8] = 56 mpk, 0.5 hr., racemic compounds compared (table 4)
[9] = 56 mpk, 2.0 hr., racemic compounds compared (table 4)
[10] = 17.5 mpk, 2 hr, d-, l- and dl- forms compared, saline control 0.92
[11] = 17.5 mpk, .5 hr, d-, l- and dl- forms compared, saline control 0.78
[12] = 32 mpk, 2 hr, d-, l- and dl- forms compared, saline control 0.92
[13] = 32 mpk, .5 hr, d-, l- and dl- forms compared, saline control 0.78
[14] = 56 mpk, 2 hr, d-, l- and dl- forms compared, saline control 0.92
[15] = 56 mpk, .5 hr, d-, l- and dl- forms compared, saline control 0.78

## COc1cc2c(cc1OC)C(=O)CC(C)N2 (racemic) [6,7-Dimethoxy-2-methyl-4-oxo-1,2,3,4-tetrahydroquinoline]
[1]; [8]
  Jump Threshold: 1.47
[1]; [9]
  Jump Threshold: 1.10

## COc1cc2c(cc1OC)N(C(=O)OCc1ccccc1)C(C)CC2=O (racemic) [Benzyl 6,7-Dimethoxy-2-methyl-4-oxo-1,2,3,4-tetrahydroquinoline-1-carboxylate]
[1]; [8]
  Jump Threshold: 1.47
[1]; [9]
  Jump Threshold: 1.21

## CCOC(=O)N1c2cc(OC)c(OC)cc2C(=O)CC1C (racemic) [Ethyl 6,7-Dimethoxy-2-methyl-4-oxo-1,2,3,4-tetrahydroquinoline-1-carboxylate]
[1]; [10]
  Jump Threshold: 0.98
[1]; [11]
  Jump Threshold: 1.26
[1]; [12]
  Jump Threshold: 1.18
[1]; [13]
  Jump Threshold: 1.38
[1]; [8]
  Jump Threshold: 1.58
[1]; [9]
  Jump Threshold: 1.42
[1]; [14]
  Jump Threshold: 1.45
[1]; [15]
  Jump Threshold: 1.58

## CCOC(=O)N1c2cc(OC)c(OC)cc2C(=O)CC1C (single isomer, unassigned) [d-ethyl 6,7-dimethoxy-2-methyl-4-oxo-1,2,3,4-tetrahydroquino] [d-Ethyl 6,7-Dimethoxy-2-methyl-4-oxo-1,2,3,4-tetrahydroquinoline-1-carboxylate]
[1]; [10]
  Jump Threshold: 0.98
[1]; [11]
  Jump Threshold: 1.26
[1]; [12]
  Jump Threshold: 1.38
[1]; [13]
  Jump Threshold: 1.45
[1]; [14]
  Jump Threshold: 1.45
[1]; [15]
  Jump Threshold: 1.51

## CCOC(=O)N1c2cc(OC)c(OC)cc2C(=O)CC1C (single isomer, unassigned) [l-ethyl 6,7-dimethoxy-2-methyl-4-oxo-1,2,3,4-tetrahydroquino] [l-Ethyl 6,7-Dimethoxy-2-methyl-4-oxo-1,2,3,4-tetrahydroquinoline-1-carboxylate]
[1]; [10]
  Jump Threshold: 0.92
[1]; [11]
  Jump Threshold: 0.92
[1]; [12]
  Jump Threshold: 0.86
[1]; [13]
  Jump Threshold: 0.85
[1]; [14]
  Jump Threshold: 0.86
[1]; [15]
  Jump Threshold: 1.05

## CCOC(=O)N1c2cc(OC)c(OC)cc2C(=O)CC1C (stereo not shown) [drawing 7]
[2]
  Symptomatology, Inclined Plane: 32-100 mpk
  Symptomatology, Rotorod: 3.2-10 mpk
[3]; 17.8 mpk
  Conditioned Avoidance Behavior, Sidman: 2 of 3 animals
[3]; 32 mpk
  Conditioned Avoidance Behavior, Sidman: Active in 3 of 3 animals
[4]
  Conditioned Avoidance Behavior, Maffi: Active at 56, 32 and 10 mpk
[5]; 10 mpk
  Sedation Test: Inactive at 10
[5]; 32 mpk
  Sedation Test: Active at 32 mpk

## COC(=O)N1c2cc(OC)c(OC)cc2C(=O)CC1C (stereo not shown) [drawing 8]
[2]
  Symptomatology, Inclined Plane: 100-316 mpk
  Symptomatology, Rotorod: 100-316 mpk

## CCCCOC(=O)N1c2cc(OC)c(OC)cc2C(=O)CC1C (stereo not shown) [drawing 9]
[2]
  Symptomatology, Inclined Plane: 100-316 mpk
  Symptomatology, Rotorod: 32-100 mpk

## COc1cc2c(cc1OC)N(C(=O)OCc1ccccc1)C(C)CC2=O (stereo not shown) [drawing 10]
[2]
  Symptomatology, Inclined Plane: 100-316 mpk
  Symptomatology, Rotorod: 100-316 mpk

## CCOC(=O)N1c2cc(OC)c(OC)cc2C(=O)CC1C (stereo not shown) [drawing 11]
[1]; 3.2 mpk i.p., 2 h
  Rat Flinch Jump Test, Jump Threshold: .6
[1]; 3.2 mpk i.p., .5 h
  Rat Flinch Jump Test, Jump Threshold: .8
[1]; 10 mpk i.p., 2 h, Run two
  Rat Flinch Jump Test, Jump Threshold: .8
[1]; 32 mpk i.p., 2 h
  Rat Flinch Jump Test, Jump Threshold: > 2.2
[1]; 32 mpk i.p., .5 h
  Rat Flinch Jump Test, Jump Threshold: > 2.2
Escape Titration Test
  Escape Titration: Active at 32 mpk (p.o.)
Tail Flick Test; 2 h
  Tail Flick % Protected: 0%
Tail Flick Test; .5 h
  Tail Flick % Protected: 0%
[6]
  PBQ Writhing: Inactive at 100 mpk
LD50
  LD50: > 1000 mg/kg
Hot Plate Test; 2 h
  Hot Plate % Protected: 0%
Hot Plate Test; .5 h
  Hot Plate % Protected: 0%

## COC(=O)N1c2cc(OC)c(OC)cc2C(=O)CC1C (stereo not shown) [drawing 12]
[1]; 32 mpk i.p., 2 h
  Rat Flinch Jump Test, Jump Threshold: 1.2
[1]; 32 mpk i.p., .5 h
  Rat Flinch Jump Test, Jump Threshold: 1.6
Tail Flick Test; 2 h
  Tail Flick % Protected: 0%
Tail Flick Test; .5 h
  Tail Flick % Protected: 0%
[6]
  PBQ Writhing: Inactive at 100 mpk
LD50
  LD50: > 1000 mg/kg
Hot Plate Test; 2 h
  Hot Plate % Protected: 0%
Hot Plate Test; .5 h
  Hot Plate % Protected: 0%

## CCCCOC(=O)N1c2cc(OC)c(OC)cc2C(=O)CC1C (stereo not shown) [drawing 13]
[1]; 32 mpk i.p., 2 h
  Rat Flinch Jump Test, Jump Threshold: 1.2
[1]; 32 mpk i.p., .5 h
  Rat Flinch Jump Test, Jump Threshold: 1.6
Tail Flick Test; 2 h
  Tail Flick % Protected: 0%
Tail Flick Test; .5 h
  Tail Flick % Protected: 0%
[6]
  PBQ Writhing: Inactive at 100 mpk
LD50
  LD50: 316 to 1000 mg/kg
Hot Plate Test; 2 h
  Hot Plate % Protected: 0%
Hot Plate Test; .5 h
  Hot Plate % Protected: 0%

## COc1cc2c(cc1OC)N(C(=O)OCc1ccccc1)C(C)CC2=O (stereo not shown) [drawing 14]
[6]
  PBQ Writhing: Inactive at 100 mpk
LD50
  LD50: > 1000 mg/kg

## CCOC(=O)N1c2cc(OC)c(OC)cc2C(=O)CC1C (stereo not shown) [drawing 15]
[7]
  ED50: > 100 mg/kg

## COC(=O)N1c2cc(OC)c(OC)cc2C(=O)CC1C (stereo not shown) [drawing 16]
[7]
  ED50: 100 to 316 mg/kg

## CCCCOC(=O)N1c2cc(OC)c(OC)cc2C(=O)CC1C (stereo not shown) [drawing 17]
[7]
  ED50: > 32 mg/kg
